Tests used:
sarcoma = assay: Sarcoma-implanted mice: change in tumor volume; assay type: in vivo; details: 5-FU 20 mg/kg/day oral in drinking water (group A), vs control group
Method: The above result obviously indicates the characteristics of the treatment with an anticancer drug, and in this type of treatment, the anticancer drug can suppress growth of a tumor, but normal cells are damaged by toxicity of the anticancer drug. This negative aspect spoils the positive result of the treatment with an anticancer drug. […] The dose of 2 g/kg/day corresponds to 30 mg/kg/day in administration with respect to the solid content (1.5%).

[1] = system: leukemia-originated tumor cell P388; assay: Anti-leukemia test (survival rate); assay type: in vivo, mice; details: group A, 5-FU 2.0 mg/kg oral, 40 days after implantation
Method: The test was carried out according to the ordinary method by using mice each with the leukemia-originated tumor cell P388 implanted therein and also by comparing survival rates of the mice after the test samples were administered. Just after the tumor was implanted, each test sample was orally administered by mixing the sample in water in a bottle for drinking water and making the mice freely drink the water. […] 10 mice were used for one test sample group.

[2] = system: mouse carrying diabetes caused by streptozotocin; assay: Test for accelerating normalization of a blood glucose level; assay type: in vivo, mice; details: 200 mg/kg intraperitoneal (positive control group)
Method: The test was performed by using mice, in each of which a diabetes was induced by streptozotocin, and also by comparing blood glucose levels before and after administration of test samples. In Table 3, the “normal group” indicates a blood glucose level in the normal state where treatment with streptozotocin is not performed. On the other hand, the “negative control group” indicates a blood glucose level in a mouse in which diabetes was generated by being subjected to treatment with streptozotocin. The “positive control group” indicates a blood glucose level when tolbutamide which was an accelerator of insulin secretion (200 mg/kg) was administered to a mouse carrying diabetes caused by streptozotocin. The “test A group” and “test B group” each indicates a blood glucose level when each of the Aureobasidium culture solution (2 g/kg and 10 g/kg) was administered to a mouse carrying diabetes caused by streptozotocin. It is to be noted that each sample was intrapenitoreally administered.
FIG. 6 is plotted with the ordinate axis indicating a blood glucose level and with the abscissa axis indicating treatment performed to each group of the tested mice. A left bar in each group represents an average value of blood glucose levels before administration of the test sample, while a right bar represent an average value of blood glucose levels after administration of the test sample.

Row | SMILES | volume of the tumor (sarcoma) | survival rate [1] [%] | descent percentage of blood glucose level [2] [%]
1 | O=c1[nH]cc(F)c(=O)[nH]1 [5-FU, 5-fluorouracil] | significantly restrained | 80 | 
2 | CCCCNC(=O)NS(=O)(=O)c1ccc(C)cc1 [tolbutamide] |  |  | 17.4

Reference: US20100068184A1, “LIVING BODY HEALING ACCELERATOR” (AUREO CO., LTD., priority 2006, published 2010)
